Results taken from patent US7306804B2 (priority 1998, dated 2007).
Like-named read-outs stand apart in the source and are kept apart here.

Legend:
[1] = tested on: PBMCs from normal and HIV-positive individuals; format: cell-based, human
[2] = tested on: PBMCs from control and HIV-1 infected chimpanzees; format: cell-based, chimpanzee

Substance: phytohemagglutinin [PHA, reference compound]
- SI values, proliferation ([1]; HIV+ individuals): 20.3-23.3
- cpm values, proliferation ([1]; HIV+ individuals): 108361-127640 cpm
- SI values, proliferation ([1]; normal subjects): 131-183
- proliferation ([2]; all nine HIV-infected chimpanzees): high levels of proliferation
- cpm values, proliferation ([2]; two control uninfected chimpanzees): 15832-20504 cpm
